The record followed here is PMC7643060, “Human perinatal stem cell derived extracellular matrix enables rapid maturation of hiPSC-CM structural and functional phenotypes” (Scientific Reports, 2020).

In data set [1] the test system is hiPSC-CM syncytia. In words: Proarrhythmia screen in 96 well plates using CiPA compounds (voltage sensitive dye, optical mapping). The format is cell-based, human. As to conditions: hiPSC-CM syncytia on Matrix Plus, 10 × ETPC, 30 min exposure. The method, then: MatrixPlus coated 6 or 96 well plates were stored at 4 °C, transferred to room temperature on the day of cell plating and rehydrated (30 min) in Hank’s Balanced Salt Solution (HBSS). HBSS was aspirated and hiPSC-CMs were plated essentially as before[17],[22]. Briefly, commercially available iCell[2] Cardiomyocytes (Cellular Dynamics International) were thawed at 37 °C for 4 min, diluted in 7 ml of EB20 medium supplemented with blebbistatin (DMEM:F12, 20%FBS, 0.1% glutamine, 0.2%NEAA, 25 µM blebbistatin) and centrifuged (1000 rpm for 5 min) for removal of cryoprotectants. All work with human pluripotent stem cell derived cardiomyocytes was performed with approval from the University of Michigan Human Pluripotent Stem Cell Research Oversight committee (HPSCRO). All methods with human samples were handled following NIH guidelines. Cells from a single vial were diluted in EB20 with blebbistatin ([…]) and split evenly for plating on Matrigel, CELLvo Matrix and MatrixPLUS. Total amount of cells per functional syncytia varied depending on plate format, six well plates received 150,000 cells in the center of 1 cm diameter of matrix; and 96 well plates received 75,000 cells per well. Lower density plating (25,000 cells per well) was also used to more clearly observe cellular shape. hiPSC-CMs were maintained in cardiomyocyte EB20 supplemented with blebbistatin for 2 days before culture in RPMI supplemented with B27 for another 5 days[1].
(§1) Proarrhythmia screening assay was performed using voltage sensitive dye (VSD, FluoVolt) and high speed CCD camera (200fps)[24]. […] Supplemental Tables 1–3 outline each drug tested, the CiPA risk classification, the concentrations used and the clinical recorded Cmax for each drug to provide clinical reference for drug concentrations. Cells were then submitted to optical mapping for detection of voltage changes recorded with the CCD camera via selection of appropriate light wavelength (filter 515 nm, green light, Chroma). Movies were analyzed with custom made analysis software (Scroll) for determination of action potential duration and conduction velocity as described before[22],[24],[25].
Supplemental tables 1-3 outline each drug tested, the CiPA risk classification, the concentrations used and the clinical recorded Cmax for each drug to provide clinical reference for drug concentrations. hiPSC-CM monolayers were then submitted to optical mapping for detection of membrane voltage changes recorded with the CCD camera via selection of appropriate light wavelength (filter 515 nm, green light, Chroma). Movies were analyzed with custom made analysis software (Scroll) for determination of action potential duration and conduction velocity where appropriate.

Data set [2] concerns hiPSC-CM monolayers. The data set is classed as cell-based, human. As to the method:
HBSS was aspirated and hiPSC-CMs were plated essentially as before[17],[22]. Briefly, commercially available iCell[2] Cardiomyocytes (Cellular Dynamics International) were thawed at 37 °C for 4 min, diluted in 7 ml of EB20 medium supplemented with blebbistatin (DMEM:F12, 20%FBS, 0.1% glutamine, 0.2%NEAA, 25 µM blebbistatin) and centrifuged (1000 rpm for 5 min) for removal of cryoprotectants. All work with human pluripotent stem cell derived cardiomyocytes was performed with approval from the University of Michigan Human Pluripotent Stem Cell Research Oversight committee (HPSCRO). All methods with human samples were handled following NIH guidelines. […]
as §1

For `CN(CCOc1ccc(NS(C)(=O)=O)cc1)CCc1ccc(NS(C)(=O)=O)cc1` [dofetilide], in data set [1], the Wells with arrhythmias was 83%. As for `COc1ccccc1OCC(O)CN1CCN(CC(=O)Nc2c(C)cccc2C)CC1` (stereo not drawn) [ranolazine], in data set [1], the Wells with arrhythmias result is “did not detect any arrhythmias”. Further, in data set [2], the “Appearance of arrhythmias of TdP” value is given as “did not observe appearance of arrhythmias of TdP” and the “Change of beat rate or conduction velocity” value is reported as “did not significantly alter beat rate or conduction velocity”.

`CC(C)N(CCC(C(N)=O)(c1ccccc1)c1ccccn1)C(C)C` (stereo not drawn) [disopyramide]: in data set [1], the Wells with arrhythmias was found to be 66%. On to `CC(C)COCC(CN(Cc1ccccc1)c1ccccc1)N1CCCC1` (stereo not drawn) [bepridil], for which the Wells with arrhythmias entry in data set [1] was “did not yield arrhythmic responses”.
